Measured values as given in ChEMBL document CHEMBL4483862, “Open-source discovery of chemical leads for next-generation chemoprotective antimalarials” (2018).
pIC50: −log10 of the molar value.

System: Plasmodium berghei
Assay: Luciferase/luciferin-expressing antifolate-resistant parasites were used to infect a culture of HepG2 cells that were pre-incubated with compounds. Infected hepatocytes emit light due to the luciferase reaction. Assay results are presented as the percent inhibition of light emission compared to control. […]
Type: functional
Settings: sporozoite; for IC90: read-out: LUCIFERASE INFECTION ASSAY - IC90

`CC(=O)Nc1cccc(-c2ccnc3c2CC(C)(C(=O)NCc2cccc(Cl)c2)O3)c1` (stereo unspecified) was tested, and the pIC50 (FFLUC_HILL_SLOPE 12.6, FFLUC_R_SQUARED 0.486, HEPG2TOX_HILL_SLOPE 12, HEPG2TOX_R_SQUARED 0.561, PBLUC_HILL_SLOPE 2.25, PBLUC_R_SQUARED 0.29, read-out: LUCIFERASE INFECTION ASSAY - IC50) was 5.38 and the IC90 was over 7.57 µM.
`CC(C)(C)c1cc(C(=O)NNC(=S)Nc2ccccc2)n(Cc2ccc(Cl)cc2Cl)n1` gave a pIC50 (FFLUC_HILL_SLOPE 12.6, FFLUC_R_SQUARED 0.389, HEPG2TOX_HILL_SLOPE 2.18, HEPG2TOX_R_SQUARED 0.945, PBLUC_HILL_SLOPE 8.72, PBLUC_R_SQUARED 0.517, read-out: LUCIFERASE INFECTION ASSAY - IC50) of 5.45 and an IC90 of 4.51 µM.
`COc1cccc(N2C(C)=CC(=C(C#N)c3nc4ccccc4s3)C=C2C)c1` gave a pIC50 (FFLUC_HILL_SLOPE 12.5, FFLUC_R_SQUARED 0.607, HEPG2TOX_HILL_SLOPE 3.97, HEPG2TOX_R_SQUARED 0.941, PBLUC_HILL_SLOPE 8.86, PBLUC_R_SQUARED 0.0114, read-out: LUCIFERASE INFECTION ASSAY - IC50) of under 5.00 and an IC90 of over 10 µM.
`CC(C(=O)Nc1ccc(S(=O)(=O)N2CCCC2)cc1)N1CCC(CCc2ccc(O)cc2)CC1` (stereo unspecified) was tested, and the pIC50 (FFLUC_HILL_SLOPE 12.4, FFLUC_R_SQUARED 0.343, PBLUC_HILL_SLOPE 0.669, PBLUC_R_SQUARED 0.407, read-out: LUCIFERASE INFECTION ASSAY - IC50) was under 5.00 and the IC90 was over 10 µM.
`CC1CCN(/C(=N/S(=O)(=O)c2ccc(-n3nc(C(F)(F)F)cc3-c3cccs3)cc2)N/N=C/c2ccc(Cl)cc2)CC1` was tested, and the pIC50 (FFLUC_HILL_SLOPE 12.3, FFLUC_R_SQUARED 0.48, read-out: LUCIFERASE INFECTION ASSAY - IC50) was under 5.28 and the IC90 was over 5.2 µM.
Molecule `COc1ccccc1-c1cc2c(Nc3ccc(OC(F)(F)F)cc3)nccc2n1C` has a pIC50 (FFLUC_HILL_SLOPE 12.5, FFLUC_R_SQUARED 0.343, HEPG2TOX_HILL_SLOPE 2.16, HEPG2TOX_R_SQUARED 0.708, PBLUC_HILL_SLOPE 2.92, PBLUC_R_SQUARED 0.46, read-out: LUCIFERASE INFECTION ASSAY - IC50) of 5.40 and an IC90 of 8.42 µM.
`O=c1c2ccccc2c(=O)c2oc3cc4oc5c(=O)c6ccccc6c(=O)c5[nH]c4cc3[nH]c12` was tested, and the pIC50 (FFLUC_HILL_SLOPE 12.7, FFLUC_R_SQUARED 0.208, HEPG2TOX_HILL_SLOPE 4.53, HEPG2TOX_R_SQUARED 0.902, PBLUC_HILL_SLOPE 7.46, PBLUC_R_SQUARED 0.34, read-out: LUCIFERASE INFECTION ASSAY - IC50) was 5.53 and the IC90 was 4 µM.
`CC1CC(C)CN(Cc2nc(=O)c3c(-c4ccc(Cl)cc4)csc3[nH]2)C1` (stereo unspecified) gave a pIC50 (FFLUC_HILL_SLOPE 12.3, FFLUC_R_SQUARED 0.735, PBLUC_HILL_SLOPE 4.47, PBLUC_R_SQUARED 0.339, read-out: LUCIFERASE INFECTION ASSAY - IC50) of 5.39 and an IC90 of 6.66 µM.
Work on `Cc1ccc(C)c(-n2cc(-c3ccc(Cl)cc3)nc2SCC(=O)c2ccc(Cl)c(Cl)c2)c1` yielded a pIC50 (FFLUC_HILL_SLOPE 12.4, FFLUC_R_SQUARED 0.889, HEPG2TOX_HILL_SLOPE 8.6, HEPG2TOX_R_SQUARED 0.032, read-out: LUCIFERASE INFECTION ASSAY - IC50) of under 5.00 and an IC90 of over 10 µM.
`Fc1ccc(CNc2ccc3ncc(Br)n3n2)cc1` gave a pIC50 (FFLUC_HILL_SLOPE 12.6, FFLUC_R_SQUARED 0.212, PBLUC_HILL_SLOPE 1.62, PBLUC_R_SQUARED 0.732, read-out: LUCIFERASE INFECTION ASSAY - IC50) of 5.28 and an IC90 of over 10.3 µM.
In the case of `CCCn1nc(C(=O)Nc2ccccc2Cc2ccccc2)c2ccccc2c1=O`, the pIC50 (FFLUC_HILL_SLOPE 12.7, FFLUC_R_SQUARED 0.0456, HEPG2TOX_HILL_SLOPE 0.0305, HEPG2TOX_R_SQUARED 0.0383, read-out: LUCIFERASE INFECTION ASSAY - IC50) was under 5.00 and the IC90 was over 10 µM.
With `O=C(c1cc(C(=O)N2CCCC2)c2nc3scc(-c4ccccc4)c3c(=O)n2c1)c1cc(F)ccc1O` the pIC50 (FFLUC_HILL_SLOPE 12.4, FFLUC_R_SQUARED 0.51, HEPG2TOX_HILL_SLOPE 7.25, HEPG2TOX_R_SQUARED 0.253, PBLUC_HILL_SLOPE 65.5, PBLUC_R_SQUARED 0.659, read-out: LUCIFERASE INFECTION ASSAY - IC50) was 5.01 and the IC90 was over 10 µM.
Molecule `CCc1cccc(CC)c1N1C(=O)C=CC1=O` has a pIC50 (FFLUC_HILL_SLOPE 12.6, FFLUC_R_SQUARED 0.68, HEPG2TOX_HILL_SLOPE 16.7, HEPG2TOX_R_SQUARED 0.936, PBLUC_HILL_SLOPE 11.7, PBLUC_R_SQUARED 0.538, read-out: LUCIFERASE INFECTION ASSAY - IC50) of 5.31 and an IC90 of 5.85 µM.
For `CCCCNC(=O)c1c(NC(=O)C(CC)c2ccccc2)nc2ccc(C)cn12` (stereo unspecified), the pIC50 (FFLUC_HILL_SLOPE 12.5, FFLUC_R_SQUARED 0.645, PBLUC_HILL_SLOPE 0.242, PBLUC_R_SQUARED 0.0523, read-out: LUCIFERASE INFECTION ASSAY - IC50) was under 5.08 and the IC90 was over 8.41 µM.
With `O=C1C(=Nc2ccc(O)cc2)C=C(NS(=O)(=O)c2cccs2)c2ccccc21` the pIC50 (FFLUC_HILL_SLOPE 12.7, FFLUC_R_SQUARED 0.111, HEPG2TOX_HILL_SLOPE 2.05, HEPG2TOX_R_SQUARED 0.969, PBLUC_HILL_SLOPE 9.12, PBLUC_R_SQUARED 0.459, read-out: LUCIFERASE INFECTION ASSAY - IC50) was 5.56 and the IC90 was 3.54 µM.
For `Cc1ccc(-n2c(SCC(=O)N3CCC(C)Sc4ccccc43)nnc2-c2ccccc2)cc1C` (stereo unspecified), the pIC50 (FFLUC_HILL_SLOPE 12.3, FFLUC_R_SQUARED 0.54, HEPG2TOX_HILL_SLOPE 7.7, HEPG2TOX_R_SQUARED 0.421, PBLUC_HILL_SLOPE 3.98, PBLUC_R_SQUARED 0.233, read-out: LUCIFERASE INFECTION ASSAY - IC50) was 5.21 and the IC90 was over 10 µM.
For `CSc1sc(C(=O)NC(=O)Nc2cccc(C(F)(F)F)c2)cc1C#N`, the pIC50 (FFLUC_HILL_SLOPE 12.6, FFLUC_R_SQUARED 0.0423, read-out: LUCIFERASE INFECTION ASSAY - IC50) was under 5.07 and the IC90 was over 8.56 µM.
Work on `Clc1ccc(/N=C/c2c(Sc3ccc(Cl)cc3)nc3sccn23)cc1` yielded a pIC50 (FFLUC_HILL_SLOPE 12.3, FFLUC_R_SQUARED 0.518, HEPG2TOX_HILL_SLOPE 2.77, HEPG2TOX_R_SQUARED 0.964, PBLUC_HILL_SLOPE 5.31, PBLUC_R_SQUARED 0.509, read-out: LUCIFERASE INFECTION ASSAY - IC50) of 5.46 and an IC90 of 5.29 µM.
Molecule `Cc1c(Sc2ccccc2[N+](=O)[O-])c2ccccn2c1C(=O)c1ccc(Br)cc1` has a pIC50 (FFLUC_HILL_SLOPE 12.7, FFLUC_R_SQUARED 0.226, PBLUC_HILL_SLOPE 11.1, PBLUC_R_SQUARED 0.312, read-out: LUCIFERASE INFECTION ASSAY - IC50) of 5.01 and an IC90 of over 10 µM.
With `Cc1c(C(=O)OC(C)C(=O)Nc2ccc(F)cc2Cl)sc2nc3n(c(=O)c12)CCC3` (stereo unspecified) the pIC50 (FFLUC_HILL_SLOPE 12.5, FFLUC_R_SQUARED 0.0754, PBLUC_HILL_SLOPE 2.35, PBLUC_R_SQUARED 0.872, read-out: LUCIFERASE INFECTION ASSAY - IC50) was 5.27 and the IC90 was over 10 µM.
Molecule `CC(CCc1ccccc1)NC(=O)Cn1c(=O)c(=O)n(Cc2ccccc2)c2ccc(Cl)cc21` (stereo unspecified) has a pIC50 (FFLUC_HILL_SLOPE 12.6, FFLUC_R_SQUARED 0.716, read-out: LUCIFERASE INFECTION ASSAY - IC50) of under 5.00 and an IC90 of over 10 µM.
In the case of `OCc1ccc(-c2cnc3ccc(-c4cccc(Cl)c4)nn23)cc1`, the pIC50 (FFLUC_HILL_SLOPE 12.3, FFLUC_R_SQUARED 0.916, HEPG2TOX_HILL_SLOPE 9.11, HEPG2TOX_R_SQUARED 0.904, PBLUC_HILL_SLOPE 1.55, PBLUC_R_SQUARED 0.705, read-out: LUCIFERASE INFECTION ASSAY - IC50) was 6.10 and the IC90 was 3.31 µM.
In the case of `O=C(NNC(=S)Nc1ccc(Cl)c(Cl)c1)c1cccn1-c1ccc(F)cc1`, the pIC50 (FFLUC_HILL_SLOPE 12.7, FFLUC_R_SQUARED 0.0579, HEPG2TOX_HILL_SLOPE 1.8, HEPG2TOX_R_SQUARED 0.871, PBLUC_HILL_SLOPE 2.85, PBLUC_R_SQUARED 0.299, read-out: LUCIFERASE INFECTION ASSAY - IC50) was 5.57 and the IC90 was 5.78 µM.
`O=C(Nc1nc2ccccn2c1C(=O)NC1CCCCC1)c1ccccc1` gave a pIC50 (FFLUC_HILL_SLOPE 12.3, FFLUC_R_SQUARED 0.522, HEPG2TOX_HILL_SLOPE 1.9, HEPG2TOX_R_SQUARED 0.962, PBLUC_HILL_SLOPE 15.5, PBLUC_R_SQUARED 0.368, read-out: LUCIFERASE INFECTION ASSAY - IC50) of 5.55 and an IC90 of 3.28 µM.
With `CCSc1ncc(-c2nnnn2-c2ccccc2)c(-c2ccccc2)n1` the pIC50 (FFLUC_HILL_SLOPE 12.6, FFLUC_R_SQUARED 0.17, read-out: LUCIFERASE INFECTION ASSAY - IC50) was under 5.04 and the IC90 was over 9.16 µM.
`Cc1ccc(C2(c3ccccc3)NC(=O)N(CC(=O)c3cccs3)C2=O)cc1C` (stereo unspecified) gave a pIC50 (FFLUC_HILL_SLOPE 12.5, FFLUC_R_SQUARED 0.056, HEPG2TOX_HILL_SLOPE 0.321, HEPG2TOX_R_SQUARED 0.0152, PBLUC_HILL_SLOPE 3.37, 16.8, PBLUC_R_SQUARED 0.316, 0.669, read-out: LUCIFERASE INFECTION ASSAY - IC50) of 5.39 and an IC90 of 6.65 µM.
Molecule `N#Cc1c(-c2ccccc2)c(-c2ccccc2)n(C2CCCCC2)c1NC(=O)CCN1C(=O)c2ccccc2C1=O` has a pIC50 (FFLUC_HILL_SLOPE 12.4, FFLUC_R_SQUARED 0.654, read-out: LUCIFERASE INFECTION ASSAY - IC50) of under 5.00 and an IC90 of over 10 µM.
Work on `Oc1c(C(c2ccc(C(F)(F)F)cc2)N2CCCC2)cc(Cl)c2cccnc12` (stereo unspecified) yielded a pIC50 (FFLUC_HILL_SLOPE 12.3, FFLUC_R_SQUARED 0.824, HEPG2TOX_HILL_SLOPE 1.2, HEPG2TOX_R_SQUARED 0.387, PBLUC_HILL_SLOPE 2.74, PBLUC_R_SQUARED 0.879, read-out: LUCIFERASE INFECTION ASSAY - IC50) of 6.00 and an IC90 of 2.26 µM.
